One data set has as its system Pseudomonas aeruginosa. In words: Antibacterial activity against Pseudomonas aeruginosa ATCC 10145 at 0.1 mg/mL incubated for 12 hrs by agar dilution method. The class given is functional, organism-based. A general note: Agar dilution tests growth on a series of plates holding different concentrations.
A further data set has as its system Escherichia coli. The data set is described as follows: Antibacterial activity against Escherichia coli ATCC 11775 at 0.1 mg/mL incubated for 12 hrs by agar dilution method. The class given is functional, organism-based.
Data set [1] has as its system Staphylococcus aureus. The data set is described as follows: Antibacterial activity against Staphylococcus aureus ATCC 6538 at 0.1 mg/mL incubated for 12 hrs by agar dilution method. The class given is functional, organism-based.
Data set [2] relates to Staphylococcus aureus. The data set is described as follows: Antibacterial activity against methicillin-resistant Staphylococcus aureus subsp. aureus ATCC 43300 at 0.1 mg/mL incubated for 12 hrs by agar dilution method. The format is functional, organism-based.
A further data set concerns Candida albicans. The data set is described as follows: Antifungal activity against Candida albicans ATCC 10231 at 0.1 mg/mL incubated for 12 hrs by agar dilution method. The format is functional, organism-based.
The test system of the next data set is Nakaseomyces glabratus. In words: Antifungal activity against Candida glabrata ATCC 2001 at 0.1 mg/mL incubated for 12 hrs by agar dilution method. The format is functional, organism-based.
The test system of the next data set is A549. The data set is described as follows: Cytotoxicity against human A549 cells incubated for 48 hrs by CCK8 assay. The class given is functional, cell-based.
In the next data set the test system is L02. In words: Cytotoxicity against human L02 cells incubated for 48 hrs by CCK8 assay. The class given is toxicity, cell-based. To be noted: l02, 48 h. On the technique in general: Tetrazolium dyes change colour on reduction, which living cells bring about.
A further data set has as its system HCT-116. The data set is described as follows: Cytotoxicity against human HCT-116 cells incubated for 48 hrs by CCK8 assay. The format is functional, cell-based.
The next data set has as its system PC-9. In words: Cytotoxicity against human PC-9 cells incubated for 48 hrs by CCK8 assay. The format is functional, cell-based.

Activity calls are given as the source filed them. The rule behind the calls is not given here.

On to `COc1cc(=O)oc(/C=C/C=C/C=C/C(C)=C/[C@]2(C)O[C@H](C)[C@](C)(O)[C@H]2O)c1C`, for which the outcome in the data set on Pseudomonas aeruginosa, in the data set on Escherichia coli, with Staphylococcus aureus [1], with Staphylococcus aureus [2], in the data set on Candida albicans and with Nakaseomyces glabratus was inactive. The result with A549 and with HCT-116 was inactive. Besides, the Activity entry in the data set with L02 is “Non-toxic”.
Take `COc1cc(=O)oc(\C=C/C=C/C=C/[C@]2(C)O[C@]3(C)[C@@H](O)[C@@](C)(O[C@@H]3C)[C@@H]2O)c1C`: the result in the data set with Pseudomonas aeruginosa, in the data set with Escherichia coli, in the data set on Staphylococcus aureus [1], in the data set with Staphylococcus aureus [2], in the data set with Candida albicans and with Nakaseomyces glabratus was inactive. Also, the outcome in the data set on A549 and with PC-9 was inactive. The Activity entry in the data set with L02 is listed as “Non-toxic”.
Regarding `COc1cc(=O)oc(/C=C/C=C/C=C/[C@@]2(C)O[C@]3(C)[C@@H](O)[C@](C)(O[C@@H]3C)[C@H]2O)c1C`, the outcome with Pseudomonas aeruginosa, with Escherichia coli, with Staphylococcus aureus [1], with Staphylococcus aureus [2], in the data set on Candida albicans and with Nakaseomyces glabratus was inactive. Further, the outcome in the data set on A549 and in the data set on PC-9 was inactive. Also, the Activity result in the data set with L02 is “Non-toxic”.
For `COc1cc(=O)oc(/C=C/C=C/C=C\[C@@]2(C)O[C@]3(C)[C@@H](O)[C@](C)(O[C@@H]3C)[C@@H]2O)c1C`, the result in the data set with Pseudomonas aeruginosa, with Escherichia coli, in the data set with Staphylococcus aureus [1], with Staphylococcus aureus [2], in the data set on Candida albicans and in the data set with Nakaseomyces glabratus was inactive. Moreover, the result in the data set with A549 and with PC-9 was inactive. Also, the Activity entry in the data set on L02 is “Non-toxic”.
For `COc1cc(=O)oc(/C=C/C=C/C=C/[C@]2(C)O[C@]3(C)[C@@H](O)[C@@](C)(O[C@@H]3C)[C@@H]2O)c1C`, the result with Pseudomonas aeruginosa, in the data set with Escherichia coli, with Staphylococcus aureus [1], in the data set on Staphylococcus aureus [2], in the data set on Candida albicans and in the data set with Nakaseomyces glabratus was inactive. Moreover, the outcome in the data set on A549 and in the data set with PC-9 was inactive. In the data set on L02, the Activity entry is listed as “Non-toxic”.
As for `COc1cc(=O)oc(/C=C/C=C/C=C/[C@@]2(C)O[C@]3(C)[C@@H](O)[C@@](C)(O[C@@H]3C)C2=O)c1C`, the result in the data set on Pseudomonas aeruginosa, with Escherichia coli, in the data set with Staphylococcus aureus [1], with Staphylococcus aureus [2], in the data set with Candida albicans and in the data set on Nakaseomyces glabratus was inactive. Also, the result with A549 and with PC-9 was inactive. For the same compound, in the data set with L02, the Activity result was “Non-toxic”.
As for `COc1cc(=O)oc(/C=C/C=C/C=C\[C@]2(C)O[C@]3(C)[C@@H](O)[C@](C)(O[C@@H]3C)[C@@H]2O)c1C`, the result with Pseudomonas aeruginosa, with Escherichia coli, in the data set with Staphylococcus aureus [1], in the data set on Staphylococcus aureus [2], with Candida albicans and in the data set on Nakaseomyces glabratus was inactive. In addition, the result in the data set with A549 and in the data set with PC-9 was inactive. The Activity result in the data set on L02 is recorded as “Non-toxic”.
On to `COc1cc(=O)oc(\C=C/C=C/C=C/C(C)=C/[C@]2(C)O[C@H](C)[C@](C)(O)[C@H]2O)c1C`, for which the result in the data set with Pseudomonas aeruginosa, in the data set on Escherichia coli, in the data set on Staphylococcus aureus [1], in the data set on Staphylococcus aureus [2], in the data set with Candida albicans and in the data set on Nakaseomyces glabratus was inactive. In addition, the outcome in the data set on A549 and with HCT-116 was inactive. Besides, the Activity result with L02 was “Non-toxic”.
Regarding `COc1cc(=O)oc(/C=C/C=C/C=C/[C@]2(C)O[C@]3(C)[C@@H](O)[C@@](C)(O[C@@H]3C)C2=O)c1C`, the outcome in the data set with Pseudomonas aeruginosa, in the data set on Escherichia coli, with Staphylococcus aureus [1], with Staphylococcus aureus [2], in the data set with Candida albicans and in the data set with Nakaseomyces glabratus was inactive. Further, the outcome with A549 and in the data set on PC-9 was inactive. Moreover, the Activity entry in the data set with L02 is reported as “Non-toxic”.
As for `COc1cc(=O)oc(/C=C/C=C/C=C/C(C)=C\[C@]2(C)O[C@H](C)[C@](C)(O)[C@H]2O)c1C`, the outcome in the data set with Pseudomonas aeruginosa, in the data set on Escherichia coli, in the data set on Staphylococcus aureus [1], in the data set on Staphylococcus aureus [2], in the data set with Candida albicans and in the data set with Nakaseomyces glabratus was inactive. In addition, the result in the data set with A549 and in the data set on HCT-116 was inactive. In addition, in the data set with L02, the Activity entry is “Non-toxic”.
Take `COc1cc(=O)oc(/C=C/C=C/C=C/[C@]2(C)O[C@]3(C)[C@@H](O)[C@@](C)(O[C@@H]3C)[C@H]2O)c1C`: the result with Pseudomonas aeruginosa, in the data set on Escherichia coli, in the data set with Staphylococcus aureus [1], with Staphylococcus aureus [2], with Candida albicans and with Nakaseomyces glabratus was inactive. The outcome with A549 and in the data set on PC-9 was inactive. In the data set on L02, the Activity result is on record as “Non-toxic”.
`COc1cc(=O)oc(/C=C/C=C/C=C/[C@@]2(C)O[C@@]3(C)[C@@H](C)O[C@](C)(C2=O)[C@H]3O)c1C`: the result with Pseudomonas aeruginosa, in the data set with Escherichia coli, with Staphylococcus aureus [1], in the data set with Staphylococcus aureus [2], in the data set with Candida albicans and in the data set with Nakaseomyces glabratus was inactive. For the same compound, the outcome in the data set with A549 and in the data set with PC-9 was inactive. The Activity entry in the data set with L02 is given as “Non-toxic”.

The values are drawn from ChEMBL document CHEMBL6153093, “Aurovertins from a Marine-Derived Penicillium Species and Nonenzymatic Reactions in Their Formation” (J Nat Prod, 2025).
